Results reported in patent publication US9062078B2, “Substituted 7-azabicyles and their use as orexin receptor modulators” (priority 2013, dated 2015).
Read-outs that look alike come from different tables or passages of the source.

Columns and labels:
[1] = target: rat orexin 1 receptor (Rattus norvegicus, UniProt P56718); assay: Rat orexin 1 receptor radioligand binding (competitive, [3H]-SB674042, HEK293 cell preparations)
[2] = target: human orexin 2 receptor (Homo sapiens (Human), UniProt O43614); assay: Human orexin 2 receptor radioligand binding (competitive, [3H]-EMPA, HEK293 cell preparations)
Chain of human orexin 2 receptor (O43614 whole entry): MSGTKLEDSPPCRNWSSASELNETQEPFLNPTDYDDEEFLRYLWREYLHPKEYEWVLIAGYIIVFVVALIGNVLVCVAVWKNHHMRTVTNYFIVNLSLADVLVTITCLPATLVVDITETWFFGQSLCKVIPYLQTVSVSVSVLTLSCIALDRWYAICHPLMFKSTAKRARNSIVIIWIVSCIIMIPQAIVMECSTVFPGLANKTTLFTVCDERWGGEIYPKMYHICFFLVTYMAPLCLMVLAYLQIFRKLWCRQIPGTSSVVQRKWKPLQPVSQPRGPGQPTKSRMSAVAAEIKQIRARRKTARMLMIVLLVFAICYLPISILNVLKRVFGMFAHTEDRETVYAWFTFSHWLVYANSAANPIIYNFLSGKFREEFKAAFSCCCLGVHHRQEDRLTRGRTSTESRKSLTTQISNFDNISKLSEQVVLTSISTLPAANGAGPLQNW

[3] = rat orexin 1 receptor, [3H]-SB674042 competition binding, read-out: rOX1 Ki (nm)
[4] = human orexin 2 receptor, [3H]-EMPA competition binding, read-out: hOX2 Ki (nm)

SMILES	Ki [1, 3]	Ki [2, 4]	Ki ([1]; rOX1 Ki (nm))	Ki ([2]; hOX2 Ki (nm))
O=C(c1cccc(F)c1-c1ncccn1)N1C2CCC1C(Oc1ncc(C(F)(F)F)cn1)C2 (racemic) [Example 286, (±)-(3-fluoro-2-(pyrimidin-2-yl)phenyl)(2-((5-(trifluoromethyl)pyrimidin-2-yl)oxy)-7-azabicyclo[2.2.1]heptan-7-yl)methanone]	> 10000 nM	> 10000 nM		
Cc1ccc(-c2ncccn2)c(C(=O)N2[C@H]3CC[C@@H]2[C@@H](COc2ccccn2)C3)n1 (single isomer, unassigned) [Example 3B, (6-methyl-3-(pyrimidin-2-yl)pyridin-2-yl)((1R*,2S*,4S*)-2-((pyridin-2-yloxy)methyl)-7-azabicyclo[2.2.1]heptan-7-yl)methanone]			> 10000 nM	> 10000 nM
COc1c(F)cccc1C(=O)N1C2CCC1C(Nc1cnc3ccccc3n1)C2 (single isomer, unassigned) [Example 206, (±)-(3-fluoro-2-methoxyphenyl)(2-(quinoxalin-2-ylamino)-7-azabicyclo[2.2.1]heptan-7-yl)methanone]	1200 nM	1500 nM		
CCOc1ccc(C)nc1C(=O)N1C2CCC1C(Nc1ncc(C(F)(F)F)cn1)C2 (single isomer, unassigned) [Example 224, (±)-(3-ethoxy-6-methylpyridin-2-yl)(2-(5-(trifluoromethyl)pyrimidin-2-yl)amino)-7-azabicyclo[2.2.1]heptan-7-yl)methanone]	2500 nM	7400 nM		
CCOc1ccc(C)nc1C(=O)N1C2CCC1C(Nc1ncc(C(F)(F)F)cn1)C2 (single isomer, unassigned) [Example 227, (±)-(3-ethoxy-6-methylpyridin-2-yl)(2-(5-(trifluoromethyl)pyrimidin-2-yl)amino)-7-azabicyclo[2.2.1]heptan-7-yl)methanone]	> 10000 nM	> 10000 nM		
CCOc1ccc(C)nc1C(=O)N1C2CCC1C(Nc1cnc3ccccc3n1)C2 (single isomer, unassigned) [Example 229, (±)-(3-ethoxy-6-methylpyridin-2-yl)(2-(quinoxalin-2-ylamino)-7-azabicyclo[2.2.1]heptan-7-yl)methanone]	> 10000 nM	> 10000 nM		
COc1c(F)cccc1C(=O)N1C2CCC1C(Nc1cnc3ccccc3n1)C2 (single isomer, unassigned) [Example 231, (±)-(3-fluoro-2-methoxyphenyl)(2-(quinoxalin-2-ylamino)-7-azabicyclo[2.2.1]heptan-7-yl)methanone]	> 10000 nM	> 10000 nM		
O=C(c1cccc(F)c1-c1ncccn1)N1C2CCC1C(Oc1ncc(C(F)(F)F)cn1)C2 (single isomer, unassigned) [Example 285, (±)-(3-fluoro-2-(pyrimidin-2-yl)phenyl)(2-(5-(trifluoromethyl)pyrimidin-2-yl)oxy)-7-azabicyclo[2.2.1]heptan-7-yl)methanone]	720 nM	> 10000 nM		
Cc1coc(-c2ccc(C)nc2C(=O)N2[C@@H]3CC[C@H]2[C@H](COc2ccccn2)C3)n1 [Example 178, (6-methyl-3-(4-methyloxazol-2-yl)pyridin-2-yl)((1S,2R,4R)-2-((pyridin-2-yloxy)methyl)-7-azabicyclo[2.2.1]heptan-7-yl)methanone]	964 nM	> 10000 nM		
O=C(c1cncc2ccccc12)N1[C@@H]2CC[C@H]1[C@H](Nc1cnc(C(F)(F)F)cn1)C2 [Example 240, isoquinolin-4-yl((1S,2R,4R)-2-((5-(trifluoromethyl)pyrazin-2-yl)amino)-7-azabicyclo[2.2.1]heptan-7-yl)methanone]	400 nM	2100 nM		
Cc1ccc(C(=O)N2[C@@H]3CC[C@H]2[C@H](Nc2cnc(C(F)(F)F)cn2)C3)c(-n2nccn2)n1 [Example 247, (6-methyl-2-(2H-1,2,3-triazol-2-yl)pyridin-3-yl)((1S,2R,4R)-2-((5-(trifluoromethyl)pyrazin-2-yl)amino)-7-azabicyclo[2.2.1]heptan-7-yl)methanone]	420 nM	1130 nM		
